Data on four compounds can be found in US12152038B2, “Vasopressin receptor antagonists and products and methods related thereto” (Neumora Therapeutics, Inc., priority 2017, dated 2024).

Series [1] concerns the target T1, human Arginine Vasopressin Receptor 1a (AVPR1a) (Homo sapiens, UniProt P37288).
T1 construct: expressed in transfected cells; host or cells: CHO (CHO-AVPR1a, kept under G418 selection)
The experiment in a line: Vasopressin V1a receptor antagonist assay (FLIPR calcium, CHO-AVPR1a cells). Type of series: cell-based. Put shortly: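 CHO cells expressing human AVPR1a were loaded with Calcium-6 dye and preincubated with compound for 15 min at 37° C. Cells were then challenged with AVP at its daily-determined EC80, and FLIPR fluorescence was read. Compounds were tested in duplicate as 10-point 1:3 dilutions from a top final concentration of 3 μM.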

Series [2] can be described thus: Wild-type MDCK permeability and efflux assay (Papp, efflux ratio). Type of series: in vitro ADME. The settings on record: dog, pH 7.4, wild-type MDCK cells; for efflux ratio at 1 h, 10 μM: Papp B>A/Papp A>B, read-out: ER WT (Efflux Ratio). As for the experimental part:
The MDR1-MDCK effective efflux assay was performed as described in the BioFocus Standard Operating Procedure, ADME-SOP-56. Both wild-type (WT) and MDR1-MDCK cells (Solvo Biotechnology) were seeded onto 24-well Transwell plates at 2.35×10^5 cells per well and used in confluent monolayers after a 3 day culture at 37° C. under 5% CO2. For both cell types, test and control compounds (propranolol, vinblastine) were added (10 μM, 0.1% DMSO final, n=2) to donor compartments of the Transwell plate assembly in assay buffer (Hanks balanced salt solution supplemented with 25 mM HEPES, adjusted to pH 7.4) for both apical to basolateral (A>B) and basolateral to apical (B>A) measurements. Incubations were performed at 37° C., with samples removed from both donor and acceptor chambers at T=0 and 1 hour and compound analysed by mass spectrometry (LC-MS/MS) including an analytical internal standard.
Apparent permeability (Papp) values were determined from the relationship: Papp=[CompoundAcceptor T=end]×V Acceptor/([Compound Donor T=0]×V Donor)/incubation time×V Donor/Area×60×10^−6 cm/s
In this equation, V is the volume of each Transwell compartment (apical 125 μL, basolateral 600 μL), and concentrations are the relative MS responses for compound (normalized to internal standard) in the donor chamber before incubation and acceptor chamber at the end of the incubation, and Area is the area of cells exposed for drug transfer (0.33 cm^2).
Efflux ratios (Papp B>A/Papp A>B) were calculated for each compound from the mean Papp values in each direction for both wild-type and MDR1-MDCK cells.
In order to confirm the involvement of MDR1 in any efflux seen, an “effective efflux ratio” (EER) was calculated by comparing compound efflux ratios (ER) in the two cell types by the following equation: EER=ER(MDR1-MDCK)/ER(wild-type MDCK)
This ratio illustrates the effect of the over-expressed MDR1 normalised for the background movement of compound through the wild-type cells.
Lucifer Yellow (LY) was added to the apical buffer in all wells to assess viability of the cell layer. […] Recoveries<50% indicates compound solubility, stability or binding issues, thereby reducing the reliability of a result.
The inherent ability of a potential drug molecule to penetrate the blood brain barrier and avoid efflux by transporters expressed in the brain, can be roughly correlated with the Papp(A-B) and the efflux ratio (as defined above), respectively. A potential drug molecule with an apparent permeability<7 (10^−6 cm/sec) has low permeability (+), >7 (10^−6 cm/sec) but <10 (10^−6 cm/sec) has moderate permeability (++), >10 (10^−6 cm/sec) but <20 (10^−6 cm/sec) has good permeability (+++), and >20 (10^−6 cm/sec) is highly permeable (++++). High permeability in the WT and MDCK II cell permeability assay increases the probability of blood brain barrier penetration and access to the CNS. A potential drug molecule in the above assay system with an efflux ratio or effective efflux ratio of <1 has low probability of being an efflux substrate (++++), >1 but <2 has moderate probability of being an efflux substrate (+++), >2 but <3 has has an increased probability of being an efflux substrate (++), and >3 has a high probability of being an efflux substrate (+). If a potential drug molecule is an efflux substrate, the molecule will have a low probability of reaching exposures in the brain (site of action) that will result in efficacious levels of receptor occupancy.

Structures are written as SMILES.

T1 sequence (P37288 whole entry): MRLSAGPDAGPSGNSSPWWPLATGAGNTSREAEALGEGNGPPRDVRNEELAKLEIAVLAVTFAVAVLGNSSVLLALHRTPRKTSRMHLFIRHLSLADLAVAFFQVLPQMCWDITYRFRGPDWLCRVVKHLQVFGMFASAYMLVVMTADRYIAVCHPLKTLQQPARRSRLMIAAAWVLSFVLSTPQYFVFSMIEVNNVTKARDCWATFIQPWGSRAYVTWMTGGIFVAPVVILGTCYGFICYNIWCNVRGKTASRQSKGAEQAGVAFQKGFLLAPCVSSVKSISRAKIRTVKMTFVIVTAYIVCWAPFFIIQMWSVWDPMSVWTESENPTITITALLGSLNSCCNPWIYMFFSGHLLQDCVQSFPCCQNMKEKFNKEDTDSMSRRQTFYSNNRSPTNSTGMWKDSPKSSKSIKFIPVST

Consider `O=C(N1CC2(C1)CN(c1cnccn1)C2)N1CCc2cc(Cl)ccc21` [8-14], for which, in series [1], the half-maximal inhibitory concentration (IC50) is less than 100 nM. Besides, in series [2], the Papp A→B at 1 h, 10 μM was greater than 20 ×10⁻⁶ cm/s and the efflux ratio at 1 h, 10 μM was in the range of 1 to 2.

`COc1ccnc(N2CC3(CN(C(=O)N4c5ccc(Cl)cc5OCC4C)C3)C2)c1` (stereo not drawn) [20-8]: the IC50 in series [1] is less than 100 nM. Moreover, in series [2], the Papp A→B at 1 h, 10 μM was greater than 20 ×10⁻⁶ cm/s and the efflux ratio at 1 h, 10 μM was less than 1.

Take `CC1COc2cc(Cl)ccc2N1C(=O)N1CC2(C1)CN(c1cccnn1)C2` (single isomer, unassigned) [9-1-B]: in series [1], the IC50 is less than 100 nM. Besides, in series [2], the Papp A→B at 1 h, 10 μM was greater than 20 ×10⁻⁶ cm/s and the efflux ratio at 1 h, 10 μM lay within 1 to 2.

Consider `O=C(N1CC2(C1)CN(c1ccc(F)cn1)C2)N1CCC(F)(F)c2cc(Cl)ccc21` [17-1, (6-chloro-4,4-difluoro-3,4-dihydroquinolin-1(2H)-yl)(6-(5-fluoropyridin-2-yl)-2,6-diazaspiro[3.3]heptan-2-yl)methanone], for which the half-maximal inhibitory concentration (IC50) in series [1] was less than 100 nM. In addition, in series [2], the apical-to-basolateral permeability (Papp A→B) at 1 h, 10 μM is greater than 20 ×10⁻⁶ cm/s and the efflux ratio at 1 h, 10 μM was less than 1.
